# Molecular target: T1, human Werner helicase (WRN-BV08, Uniprot Q14191, amino acids 517-1235 with L1074F point mutation) (Homo sapiens, UniProt Q14191, L1074F)
# T1 construct: Uniprot Q14191, amino acids 517-1235 with L1074F point mutation; TEV-cleavable 8×His (C, cleaved yes); made in house; host or cells: Sf9 insect cells (baculovirus)
# Assay: WRN (BV08) ADP-Glo Assay
# Assay type: biochemical
# Details: 0.15 nM WRN, 5 μM ATP, 0.1 nM DNA duplex, 15 min preincubation, 60 min at 25° C., pH 7.5, 1% DMSO; read-out: ADP-Glo_hWRN_IC50
# From the text: Example 2: WRN (BV08) ADP-Glo Assay Protocol
# Bovine skin gelatin (BSG), dimethyl sulfoxide (DMSO), Pluronic F-127 and Tris(2-carboxyethyl)phosphine hydrochloride solution (TCEP) were purchased from Sigma-Aldrich at the highest level of purity possible. Bicine buffer solution was purchased from Alfa Aesar and compound NSC-617145 was purchased from Tocris. DNA duplex was synthesized at BGI (Shenzhen, China) and was composed of strand 1 with the sequence 5′-[…]-3′ (SEQ ID NO.: 1) and strand 2 with the sequence 5′-[…]-3′ (SEQ ID NO.: 2). DNA strands were annealed by heating to 95° C. for 5 minutes followed by slow cooling to room temperature. Compounds in 100% DMSO (0.1 μl) were spotted into a 384-well white polystyrene Optiplate-384 (Perkin Elmer) assay plate using a LabCyte Echo 550 (Agilent). DMSO (0.1 μl) was added to columns 12, rows A-H and column 24, rows I-P for the maximum signal control. Compound NSC-617145 (0.1 μl) was added to columns 12, rows I-P and 24, rows A-H for the minimum signal control (100% inhibition). Compounds/DMSO were preincubated for 15 minutes at 25° C. with 5 uL 2×WRN (BV08), prepared as described below, in assay buffer containing 20 mM Bicine (pH=7.5), 1 mM MgCl2, 10 mM KCl, 0.1% Pluronic F-127, 0.005% BSG, 1 mM TCEP. The reaction was initiated by the addition of 5 μl 2× substrate mixture in assay buffer and incubated for 60 minutes at 25° C. The final concentrations of the assay components were 0.15 nM WRN, 5 μM ATP, and 0.1 nM DNA duplex. The final DMSO concentration was 1% and the reference compound concentration (NSC-617145) used for the minimal signal control was 20 μM. The reaction was stopped by the addition of the ADP-Glo Kit components (Promega) as directed and the relative luminescence units (RLU) were read on an Envision 2104 (Perkin Elmer).
# % Inhibition Calculation:
# Where RLU=relative luminescence units, sample=signal in sample well, and MIN and MAX are the respective minimum and maximum signal controls.
# Four-Parameter IC50 Fit Equation:
# Where top and bottom are normally allowed to float but may be fixed at 100 or 0 respectively in a 3-parameter fit. Y is the % inhibition and X is the compound concentration.
# Molecular Biology and virus production. The DNA encoding human Werner helicase (Uniprot Q14191, amino acids 517-1235 with L1074F point mutation) was generated with codon-optimization for E. coli expression and subcloned into the pFastBac vector with a TEV cleavable 8×His tag (WRN-BV08). The baculovirus from the expression plasmid WRN-BV08 was generated from transfection and amplification following the manufacturer's instructions.
# Sf9 cells grown in SF900II media were infected with 1:200 WRN-BV08 P2 virus and incubated for protein expression for 72 h at 27° C. The WRN protein was purified using the following protocol. The cell pellets were thawed and resuspended in buffer A (50 mM Tris, pH 7.5, 500 mM NaCl, 1 mM TCEP, 10% Glycerol) supplemented with 0.5% CHAPS, 1 mM [COMPOUND LEFT OUT], 1 μg/mL Leupeptin, 1 μg/mL Pepstatin, and the Pierce Universal Nuclease and cocktail tablet. Cleared lysates were loaded onto a Ni Sepharose™ excel column and washed with buffer A and bound protein was eluted with buffer A supplemented with 300 mM imidazole. The eluted protein was dialyzed against buffer A and digested by His-tagged TEV (1:5 ratio) overnight at 4° C. ZnCl2 was added into the sample at final 15 μM before loading onto a second Ni Sepharose™ excel column. Untagged WRN protein was eluted from the column with buffer A supplemented with 20 mM imidazole, dialyzed overnight into buffer B (50 mM Tris, pH 7.5, 1 mM TCEP, 10% Glycerol) supplemented with 150 mM NaCl and loaded onto a Heparin column. Proteins were eluted with a step gradient of buffer B supplemented with 150 mM, 200 mM, 300 mM and 500 mM NaCl. […]
# T1 sequence (Q14191 with tags, fused parts or gaps L1074F limits assumed): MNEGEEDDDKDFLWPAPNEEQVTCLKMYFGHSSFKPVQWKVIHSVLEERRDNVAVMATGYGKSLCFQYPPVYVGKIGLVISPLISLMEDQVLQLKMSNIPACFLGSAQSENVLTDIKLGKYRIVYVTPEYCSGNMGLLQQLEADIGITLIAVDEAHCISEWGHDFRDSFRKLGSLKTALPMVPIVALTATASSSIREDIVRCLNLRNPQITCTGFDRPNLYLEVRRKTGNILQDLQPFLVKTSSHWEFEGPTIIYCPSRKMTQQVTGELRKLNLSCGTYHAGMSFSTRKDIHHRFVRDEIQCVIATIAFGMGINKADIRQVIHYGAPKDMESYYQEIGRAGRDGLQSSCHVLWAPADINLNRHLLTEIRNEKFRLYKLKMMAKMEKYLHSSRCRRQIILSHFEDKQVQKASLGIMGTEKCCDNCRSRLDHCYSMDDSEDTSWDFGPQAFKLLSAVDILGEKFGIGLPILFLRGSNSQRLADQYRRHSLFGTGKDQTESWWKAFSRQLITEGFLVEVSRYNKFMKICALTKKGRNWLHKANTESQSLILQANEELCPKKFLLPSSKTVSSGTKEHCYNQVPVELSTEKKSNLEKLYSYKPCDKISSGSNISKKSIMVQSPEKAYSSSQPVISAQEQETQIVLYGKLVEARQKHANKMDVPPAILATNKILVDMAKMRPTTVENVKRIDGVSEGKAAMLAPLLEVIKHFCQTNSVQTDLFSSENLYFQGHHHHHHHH
row,SMILES,IC50
1,"O=C(Cc1ccc(S(=O)(=O)C(F)F)cc1)N(Cc1ccncc1)C1C=CS(=O)(=O)C1 (stereo not shown) [I-351, 2-(4-difluoromethanesulfonylphenyl)-N-(1,1-dioxo-2,3-dihydro-1lambda6-thiophen-3-yl)-N-[(pyridin-4-yl)methyl]acetamide]",10 to 50 µM
2,"CN(C)S(=O)(=O)c1ccc(CC(=O)N(Cc2ccncc2)C2C=CS(=O)(=O)C2)cc1 (stereo not shown) [I-388, 2-[4-(dimethylsulfamoyl)phenyl]-N-(1,1-dioxo-2,3-dihydro-1lambda6-thiophen-3-yl)-N-[(pyridin-4-yl)methyl]acetamide]",> 50 µM
3,"CC(C)(O)c1cc(CN(C(=O)Cn2cc(-c3ccc(F)c(F)c3F)cn2)C2C=CS(=O)(=O)C2)ccn1 (single isomer, unassigned) [I-704]",< 0.5 µM
4,"CS(=O)(=O)c1ccc(CC(=O)N(Cc2ccncc2)C2C=CS(=O)(=O)C2)cc1 (stereo not shown) [I-527, N-(1,1-dioxo-2,3-dihydro-1lambda6-thiophen-3-yl)-2-(4-methanesulfonylphenyl)-N-[(pyridin-4-yl)methyl]acetamide]",> 50 µM
5,"CC(C)(O)c1cc(CN(C(=O)Cc2ccc(-n3cccc3)cc2F)C2C=CS(=O)(=O)C2)ccn1 (stereo not shown) [I-61, N-(1,1-dioxo-2,3-dihydro-1lambda6-thiophen-3-yl)-2-[2-fluoro-4-(1H-pyrrol-1-yl)phenyl]-N-{[2-(2-hydroxypropan-2-yl)pyridin-4-yl]methyl}acetamide]",< 0.5 µM
6,"O=C(Cc1ccc(-n2cccc2)cc1)N(Cc1ccc(O)cc1)C1C=CS(=O)(=O)C1 (stereo not shown) [I-303, N-(1,1-dioxo-2,3-dihydro-1lambda6-thiophen-3-yl)-N-[(4-hydroxyphenyl)methyl]-2-[4-(1H-pyrrol-1-yl)phenyl]acetamide]",10 to 50 µM
7,"CC(C)c1csc(CN(C(=O)Cc2ccc(S(F)(F)(F)(F)F)cc2)C2C=CS(=O)(=O)C2)n1 (stereo not shown) [I-659, N-(1,1-dioxo-2,3-dihydro-1lambda6-thiophen-3-yl)-2-[4-(pentafluoro-lambda6-sulfanyl)phenyl]-N-{[4-(propan-2-yl)-1,3-thiazol-2-yl]methyl}acetamide]",< 0.5 µM
8,"O=C(Cc1ccc(-n2cccc2)cc1)N(Cc1cccc(Br)c1)C1C=CS(=O)(=O)C1 (stereo not shown) [I-157, N-[(3-bromophenyl)methyl]-N-(1,1-dioxo-2,3-dihydro-1lambda6-thiophen-3-yl)-2-[4-(1H-pyrrol-1-yl)phenyl]acetamide]",0.5 to 5 µM
9,"CC(C)c1ccc(CC(=O)N(Cc2ccncc2)C2C=CS(=O)(=O)C2)c(F)c1 (stereo not shown) [I-151, N-(1,1-dioxo-2,3-dihydro-1lambda6-thiophen-3-yl)-2-[2-fluoro-4-(propan-2-yl)phenyl]-N-[(pyridin-4-yl)methyl]acetamide]",0.5 to 5 µM
10,"C#CCCCC(=O)N1CCN(c2ccc(CN(C(=O)Cc3ccc(-n4cccc4)cc3F)C3C=CS(=O)(=O)C3)cc2)CC1 (stereo not shown) [I-213, N-(1,1-dioxo-2,3-dihydro-1lambda6-thiophen-3-yl)-2-[2-fluoro-4-(1H-pyrrol-1-yl)phenyl]-N-({4-[4-(hex-5-ynoyl)piperazin-1-yl]phenyl}methyl)acetamide]",0.5 to 5 µM
11,"O=C(Cc1c[nH]c2ccccc12)N(Cc1ccncc1)C1C=CS(=O)(=O)C1 (stereo not shown) [I-493, N-(1,1-dioxo-2,3-dihydro-1lambda6-thiophen-3-yl)-2-(1H-indol-3-yl)-N-[(pyridin-4-yl)methyl]acetamide]",> 50 µM
12,"O=C(Cn1cc(-c2ccc(F)c(F)c2)cn1)N(Cc1ccnc(N2CCOCC2)c1)C1C=CS(=O)(=O)C1 (stereo not shown) [I-759, 2-[4-(3,4-difluorophenyl)-1H-pyrazol-1-yl]-N-(1,1-dioxo-2,3-dihydro-1lambda6-thiophen-3-yl)-N-{[2-(morpholin-4-yl)pyridin-4-yl]methyl}acetamide]",0.5 to 5 µM
13,"CN(C)C(=O)C(C(=O)N(Cc1ccnc(C(C)(C)O)c1)C1C=CS(=O)(=O)C1)c1ccc(-c2ccc(F)cc2)cc1 (stereo not shown) [I-34, N-(1,1-dioxo-2,3-dihydro-1lambda6-thiophen-3-yl)-2-{4′-fluoro-[1,1′-biphenyl]-4-yl}-N-{[2-(2-hydroxypropan-2-yl)pyridin-4-yl]methyl}-N′,N′-dimethylpropanediamide]",< 0.5 µM
14,"COc1ccc(COc2cc(CC(=O)N(Cc3ccnc(OC)c3)C3C=CS(=O)(=O)C3)ccc2-c2ccc(F)cn2)cc1 (stereo not shown) [I-451, N-(1,1-dioxo-2,3-dihydro-1lambda6-thiophen-3-yl)-2-[4-(5-fluoropyridin-2-yl)-3-[(4-methoxyphenyl)methoxy]phenyl]-N-[(2-methoxypyridin-4-yl)methyl]acetamide]",> 50 µM
15,"COc1cc(CN(C(=O)C(c2ccc(-c3ccc(F)c(F)c3)cc2F)n2cccn2)[C@@H]2C=CS(=O)(=O)C2)ccn1 (stereo partly drawn) [I-683, N-[(3R)-1,1-dioxo-2,3-dihydro-1lambda6-thiophen-3-yl]-N-[(2-methoxypyridin-4-yl)methyl]-2-(1H-pyrazol-1-yl)-2-{3,3′,4′-trifluoro-[1,1′-biphenyl]-4-yl}acetamide]",< 0.5 µM

# Now from value to compound:
row,IC50,SMILES
1,> 50 µM,"CN(C)C(=O)CC(C(=O)N(Cc1ccncc1)C1C=CS(=O)(=O)C1)c1ccc(-c2ccc(F)cc2)cc1 (stereo not shown) [I-475, N-(1,1-dioxo-2,3-dihydro-1lambda6-thiophen-3-yl)-2-{4′-fluoro-[1,1′-biphenyl]-4-yl}-N′,N′-dimethyl-N-[(pyridin-4-yl)methyl]butanediamide]"
2,0.5 to 5 µM,"CC(C)(O)c1cc(CN(C(=O)C(c2ccc(-c3ccc(F)c(F)c3)cc2F)n2cccn2)C2C=CS(=O)(=O)C2)ccn1 (single isomer, unassigned) [I-670, (2R*)-N-[(3R**)-1,1-dioxo-2,3-dihydro-1lambda6-thiophen-3-yl]-N-{[2-(2-hydroxypropan-2-yl)pyridin-4-yl]methyl}-2-(1H-pyrazol-1-yl)-2-{3,3′,4′-trifluoro-[1,1′-biphenyl]-4-yl}acetamide]"
3,> 50 µM,"O=C(Cc1ccc2c(c1)OCO2)N(Cc1ccncc1)C1C=CS(=O)(=O)C1 (stereo not shown) [I-494, 2-(2H-1,3-benzodioxol-5-yl)-N-(1,1-dioxo-2,3-dihydro-1lambda6-thiophen-3-yl)-N-[(pyridin-4-yl)methyl]acetamide]"
4,5 to 10 µM,"COc1cc(CN(C(=O)CCc2c[nH]c3cc(Cl)ccc23)C2C=CS(=O)(=O)C2)ccn1 (stereo not shown) [I-240, 3-(6-chloro-1H-indol-3-yl)-N-(1,1-dioxo-2,3-dihydro-1lambda6-thiophen-3-yl)-N-[(2-methoxypyridin-4-yl)methyl]propanamide]"
5,10 to 50 µM,"COC(C(=O)N(Cc1ccncc1)C1C=CS(=O)(=O)C1)c1ccc(-c2ccc(F)cc2)cc1 (single isomer, unassigned) [I-330, (2R*)-N-[(3R**)-1,1-dioxo-2,3-dihydro-1lambda6-thiophen-3-yl]-2-{4′-fluoro-[1,1′-biphenyl]-4-yl}-2-methoxy-N-[(pyridin-4-yl)methyl]acetamide]"
6,< 0.5 µM,"C=CCOC(C(=O)N(Cc1ccnc(C(C)(C)O)c1)[C@@H]1C=CS(=O)(=O)C1)c1ccc(-c2ccc(F)c(F)c2)cc1F (single isomer, unassigned) [I-641]"
7,0.5 to 5 µM,"CC(=O)N1CCN(C(=O)C(C(=O)N(Cc2ccncc2)C2C=CS(=O)(=O)C2)c2ccc(-c3ccc(F)cc3)cc2)CC1 (stereo not shown) [I-667, 3-(4-acetylpiperazin-1-yl)-N-(1,1-dioxo-2,3-dihydro-1lambda6-thiophen-3-yl)-2-{4′-fluoro-[1,1′-biphenyl]-4-yl}-3-oxo-N-[(pyridin-4-yl)methyl]propanamide]"
